One data set has as its system A549. Put plainly: Cytotoxicity against human A549 cells assessed as concentration required to inhibition cell proliferation after 120 hrs by Incucyte phase contrast microscopic analysis. In kind it is functional.
The test system of data set [1] is K562. Put plainly: Cytotoxicity against human K562 cells assessed as concentration required to inhibit cell proliferation after 120 hrs by Incucyte phase contrast microscopic analysis. Type of data set: functional.
Data set [2] is described as follows: (§1) Inhibition of TNFalpha-induced NFkappaB activation in human K562 cells incubated for 2 hrs prior to TNFalpha induction measured after 6 hrs by luciferase reporter gene assay. Type of data set: cell-based. In general terms: A reporter such as luciferase makes a cellular process visible.
For data set [3], the system named is K562. The description is as §1. In kind it is cell-based.
The next data set relates to PBMC. Put plainly: Cytotoxicity against human PBMC cells assessed as cell viability after 24 hrs by trypan blue exclusion assay. In kind it is cell-based.
Data set [4] concerns K562. Put plainly: Cytotoxicity against human K562 cells assessed as cell viability by trypan blue exclusion assay. In kind it is functional, cell-based. Particulars: TDE = time-dependent effect.
Data set [5] deals with K562. Put plainly: Cytotoxicity against human K562 cells assessed as cell viability after 8 to 72 hrs by trypan blue exclusion assay. Type of data set: functional, cell-based.
The test system of data set [6] is K562. Put plainly: Cytotoxicity against human K562 cells assessed as cell viability after 72 hrs by trypan blue exclusion assay. In kind it is functional, cell-based. Particulars: K562, 72 h.
For data set [7], the system named is K562. Put plainly: Cytotoxicity against human K562 cells assessed as cell viability after 48 hrs by trypan blue exclusion assay. Particulars: K562, 48 h. Type of data set: functional, cell-based.
Data set [8] deals with K562. Put plainly: Cytotoxicity against human K562 cells assessed as cell viability after 24 hrs by trypan blue exclusion assay. In kind it is functional, cell-based. The conditions noted are these: K562, 24 h.
Data set [9] relates to K562. Put plainly: Cytotoxicity against human K562 cells assessed as cell viability after 8 hrs by trypan blue exclusion assay. Type of data set: functional, cell-based. Particulars: K562, 8 h.
Data set [10] in a line: Selectivity ratio of IC50 for human PBMC cells to IC50 for human K562 cells. In kind it is cell-based. The conditions noted are these: PBMC cells versus K562 cells, read-out: Ratio IC50.

A value given as a limit tells only on which side of the number the result lay.

One may read the IC50 as the concentration at which inhibition is half-maximal. As for `CC1=C[C@]2(C)C(=C(C)[C@@H]3[C@@H]4C[C@H](C)C[C@H](C)[C@H]4[C@H]4Oc5ccc(cc5)C[C@]5(O)NC(=O)/C(=C(/O)[C@H]2[C@@H]43)[C@@H]5O)[C@@H]1C`, the INH entry in the data set with A549 and in the data set on K562 [1] was “>=0.5 uM” in each case. For the same molecule, the IC50 is 352 nM in [2]; 12800 nM with PBMC; 210 nM in the data set on K562 [6]; 250 nM with K562 [7]; 323 nM in the data set with K562 [8]; 917 nM with K562 [9]. The inhibition result in the data set on K562 [3] was “Dose-dependent effect”. For the same molecule, the Activity entry in the data set with K562 [4] was “tde”; with K562 [5] it was “Dose-dependent effect”. Also, the selectivity ratio in data set [10] worked out at 40.

On to `CC1=C[C@]2(C)C(=C(C)[C@@H]3[C@@H]4C[C@H](C)C[C@H](C)[C@H]4[C@H]4Oc5ccc(cc5)C[C@@]5(O)C=C(C(=O)N5)C(=O)[C@H]2[C@@H]43)[C@@H]1C`, for which the IC50 in data set [2] came to 3040 nM; in the data set on K562 [6] it was 1200 nM; with K562 [7] it was 1280 nM; with K562 [8], 2860 nM; in the data set with K562 [9] it was 3470 nM. In the data set on K562 [3], the inhibition result is “Dose-dependent effect”. Further, the Activity result in the data set with K562 [4] was “tde”; in the data set on K562 [5], “Dose-dependent effect”.

Values taken from ChEMBL document CHEMBL2321818, “Embellicines A and B: absolute configuration and NF-κB transcriptional inhibitory activity” (J Med Chem, 2013).
